Laboratory results reported in the NIST ThermoML archive (doi:10.1021/je901067c).

Legend:
[1] = refractive index (Na D-line) (dimensionless); xn = mol fraction of the nth substance listed; conditions: 101 kPa, Liquid, Standard Abbe refractometry
[2] = xn = mol fraction of the nth substance listed; conditions: 101 kPa, Liquid; for viscosity: Capillary tube (Ostwald / Ubbelohde) method

CCC(C)=O [butanone] + CCCCCO
Conditions	mass density, 298.15 K [kg/m3]	mass density, 308.15 K [kg/m3]	mass density, 318.15 K [kg/m3]	refractive index, 298.15 K	refractive index, 308.15 K	refractive index, 318.15 K	viscosity, 298.15 K [mPa·s]	viscosity, 308.15 K [mPa·s]	viscosity, 318.15 K [mPa·s]
[1], x1 = 0.088	–	–	–	1.4049	1.4014	1.3976	–	–	–
[1], x1 = 0.1632	–	–	–	1.4031	1.3997	1.3957	–	–	–
[1], x1 = 0.2427	–	–	–	1.401	1.3976	1.3937	–	–	–
[1], x1 = 0.3549	–	–	–	1.3979	1.3943	1.3905	–	–	–
[1], x1 = 0.4434	–	–	–	1.3953	1.3914	1.3878	–	–	–
[1], x1 = 0.5597	–	–	–	1.3915	1.3873	1.3838	–	–	–
[1], x1 = 0.6518	–	–	–	1.3883	1.3838	1.3804	–	–	–
[1], x1 = 0.7401	–	–	–	1.3851	1.3804	1.377	–	–	–
[1], x1 = 0.8477	–	–	–	1.381	1.376	1.3724	–	–	–
[1], x1 = 0.9355	–	–	–	1.3776	1.3725	1.3686	–	–	–
[1], x1 = 1	–	–	–	1.375	1.37	1.3657	–	–	–
[2], x1 = 0.088	809.94	802.26	794.44	–	–	–	2.557	2.011	1.608
[2], x1 = 0.1632	809.15	801.25	793.21	–	–	–	1.997	1.616	1.321
[2], x1 = 0.2427	808.31	800.16	791.89	–	–	–	1.592	1.304	1.097
[2], x1 = 0.3549	807.11	798.62	789.99	–	–	–	1.202	1.009	0.852
[2], x1 = 0.4434	806.15	797.39	788.5	–	–	–	0.983	0.835	0.721
[2], x1 = 0.5597	804.87	795.76	786.5	–	–	–	0.773	0.667	0.585
[2], x1 = 0.6518	803.85	794.44	784.88	–	–	–	0.648	0.57	0.5
[2], x1 = 0.7401	802.85	793.14	783.31	–	–	–	0.554	0.492	0.443
[2], x1 = 0.8477	801.59	791.54	781.36	–	–	–	0.485	0.427	0.381
[2], x1 = 0.9355	800.55	790.21	779.73	–	–	–	0.42	0.38	0.345
[2], x1 = 1	799.76	789.21	778.52	–	–	–	0.391	0.361	0.334

CCCC(C)O (stereo not drawn) [pentan-2-ol] + CCC(C)=O
Conditions	mass density, 298.15 K [kg/m3]	mass density, 308.15 K [kg/m3]	mass density, 318.15 K [kg/m3]	refractive index, 298.15 K	refractive index, 308.15 K	refractive index, 318.15 K	viscosity, 298.15 K [mPa·s]	viscosity, 308.15 K [mPa·s]	viscosity, 318.15 K [mPa·s]
[1], x2 = 0	–	–	–	1.4032	1.399	1.395	–	–	–
[1], x2 = 0.0824	–	–	–	1.4014	1.3974	1.3937	–	–	–
[1], x2 = 0.1612	–	–	–	1.3998	1.3959	1.3923	–	–	–
[1], x2 = 0.2401	–	–	–	1.398	1.3941	1.3906	–	–	–
[1], x2 = 0.3519	–	–	–	1.3952	1.3914	1.3877	–	–	–
[1], x2 = 0.4396	–	–	–	1.3929	1.389	1.3852	–	–	–
[1], x2 = 0.5608	–	–	–	1.3895	1.3854	1.3813	–	–	–
[1], x2 = 0.6494	–	–	–	1.3868	1.3826	1.3782	–	–	–
[1], x2 = 0.7403	–	–	–	1.384	1.3796	1.375	–	–	–
[1], x2 = 0.8491	–	–	–	1.3803	1.3757	1.3711	–	–	–
[1], x2 = 0.9384	–	–	–	1.3772	1.3724	1.3679	–	–	–
[2], x2 = 0	805.3	797	788.37	–	–	–	3.478	2.361	1.772
[2], x2 = 0.0824	804	795.54	786.83	–	–	–	2.664	1.778	1.344
[2], x2 = 0.1612	802.99	794.34	785.5	–	–	–	2.066	1.381	1.094
[2], x2 = 0.2401	802.04	793.29	784.32	–	–	–	1.69	1.105	0.897
[2], x2 = 0.3519	800.97	791.97	782.76	–	–	–	1.347	0.865	0.721
[2], x2 = 0.4396	800.31	791.07	781.66	–	–	–	1.131	0.731	0.642
[2], x2 = 0.5608	799.65	790.15	780.47	–	–	–	0.886	0.587	0.514
[2], x2 = 0.6494	799.34	789.63	779.91	–	–	–	0.743	0.518	0.457
[2], x2 = 0.7403	799.2	789.23	779.15	–	–	–	0.623	0.462	0.407
[2], x2 = 0.8491	799.26	789.02	778.67	–	–	–	0.505	0.406	0.366
[2], x2 = 0.9384	799.49	789.09	778.55	–	–	–	0.436	0.371	0.338
